Results as given in PMC7044277 (Nature Communications, 2020).
“And” between values parts separate entries of the source, which are not always exact repeats. Equal entries are not always repeated.

Columns and labels:
Format in all cases: cell-based
Design in all cases: GPCRome screening signal at PTGIR / GPCRome screening signal at PTH1R / GPCRome screening signal at PTH2R / GPCRome screening signal at QRFP / GPCRome screening signal at RXFP2 / GPCRome screening signal at RXFP3 / GPCRome screening signal at RXFP4 / GPCRome screening signal at S1PR2 / GPCRome screening signal at S1PR3 / GPCRome screening signal at S1PR4 / GPCRome screening signal at S1PR5 / GPCRome screening signal at SCTR / GPCRome screening signal at SSTR2 / GPCRome screening signal at SSSTR / GPCRome screening signal at SSTR4 / GPCRome screening signal at SSTR5 / GPCRome screening signal at SUCNR1 / GPCRome screening signal at TA1 / GPCRome screening signal at TAAR2 / GPCRome screening signal at TAAR5 / GPCRome screening signal at TAAR6 / GPCRome screening signal at TAAR8 / GPCRome screening signal at TACR1 / GPCRome screening signal at TACR2 / GPCRome screening signal at TACR3 / GPCRome screening signal at TBXA2R / GPCRome screening signal at TSHR / GPCRome screening signal at UTS2R / GPCRome screening signal at VIPR2 / GPCRome screening signal at GPR68 no V2 Tail / GPCRome screening signal at GRM2 / GPCRome screening signal at GRM3: reference not given here
320 non-olfactory GPCRs [1] = biological target: T1, 320 non-olfactory GPCRs (Homo sapiens, UniProt O95136); settings: receptor S1PR2
T1 construct: expressed in transfected cells; host or cells: HTLA cells

320 non-olfactory GPCRs [2] = biological target: T2, 320 non-olfactory GPCRs (Homo sapiens, UniProt P21452); settings: receptor TACR2
T2 construct: expressed in transfected cells; host or cells: HTLA cells

320 non-olfactory GPCRs [3] = biological target: T3, 320 non-olfactory GPCRs (Homo sapiens, UniProt P21731); settings: receptor TBXA2R
T3 construct: expressed in transfected cells; host or cells: HTLA cells

320 non-olfactory GPCRs [4] = biological target: T4, 320 non-olfactory GPCRs (Homo sapiens, UniProt Q9UKP6); settings: receptor UTS2R
T4 construct: expressed in transfected cells; host or cells: HTLA cells

[5] = Fig_5f, single replicate values
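For GPCRome agonism screen response in this document: fold over basal response of each receptor without drug.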

T3 sequence (P21731 whole entry): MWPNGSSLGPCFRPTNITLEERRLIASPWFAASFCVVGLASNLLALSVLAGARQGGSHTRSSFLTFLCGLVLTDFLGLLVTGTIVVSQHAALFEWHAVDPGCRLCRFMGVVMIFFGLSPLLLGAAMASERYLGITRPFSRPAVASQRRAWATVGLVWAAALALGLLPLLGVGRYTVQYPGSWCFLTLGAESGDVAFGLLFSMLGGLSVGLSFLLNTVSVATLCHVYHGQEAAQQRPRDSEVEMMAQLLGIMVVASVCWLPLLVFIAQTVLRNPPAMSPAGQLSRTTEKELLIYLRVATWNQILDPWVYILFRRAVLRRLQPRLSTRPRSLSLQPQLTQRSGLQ
T1 sequence (O95136 whole entry): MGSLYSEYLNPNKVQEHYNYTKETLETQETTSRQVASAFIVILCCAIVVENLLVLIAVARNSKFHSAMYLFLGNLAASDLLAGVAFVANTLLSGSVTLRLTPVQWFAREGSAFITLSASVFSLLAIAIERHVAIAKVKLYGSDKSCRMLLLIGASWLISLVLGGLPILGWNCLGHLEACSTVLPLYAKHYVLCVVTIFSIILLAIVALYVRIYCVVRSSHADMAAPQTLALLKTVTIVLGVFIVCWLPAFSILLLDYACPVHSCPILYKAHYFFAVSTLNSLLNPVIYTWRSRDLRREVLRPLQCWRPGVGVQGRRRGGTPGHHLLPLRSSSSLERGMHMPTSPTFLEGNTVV
T4 sequence (Q9UKP6 whole entry): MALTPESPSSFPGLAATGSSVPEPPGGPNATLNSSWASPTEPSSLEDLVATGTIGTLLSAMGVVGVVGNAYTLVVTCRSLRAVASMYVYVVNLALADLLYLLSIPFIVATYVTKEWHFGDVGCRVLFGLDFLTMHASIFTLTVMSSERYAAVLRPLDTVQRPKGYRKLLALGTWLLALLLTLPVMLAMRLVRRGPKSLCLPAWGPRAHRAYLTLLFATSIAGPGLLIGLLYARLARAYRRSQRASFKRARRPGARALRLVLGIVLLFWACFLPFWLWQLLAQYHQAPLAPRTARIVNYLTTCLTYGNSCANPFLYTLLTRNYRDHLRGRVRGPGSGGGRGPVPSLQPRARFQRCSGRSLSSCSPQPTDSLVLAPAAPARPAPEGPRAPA
T2 sequence (P21452 whole entry): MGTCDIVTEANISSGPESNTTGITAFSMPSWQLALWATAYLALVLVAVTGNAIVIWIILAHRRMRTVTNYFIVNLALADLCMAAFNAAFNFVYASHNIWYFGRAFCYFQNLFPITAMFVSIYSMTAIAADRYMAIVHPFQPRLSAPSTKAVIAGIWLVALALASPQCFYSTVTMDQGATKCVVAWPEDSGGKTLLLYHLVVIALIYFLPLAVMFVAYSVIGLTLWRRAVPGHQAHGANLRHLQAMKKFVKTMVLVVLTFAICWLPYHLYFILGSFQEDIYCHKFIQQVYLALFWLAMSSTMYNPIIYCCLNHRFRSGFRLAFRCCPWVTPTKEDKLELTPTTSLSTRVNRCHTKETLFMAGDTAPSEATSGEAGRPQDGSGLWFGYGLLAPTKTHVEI

Row | SMILES | GPCRome screening signal at S1PR2 (320 non-olfactory GPCRs [1]; [5]) | GPCRome screening signal at TACR2 (320 non-olfactory GPCRs [2]; [5]) | GPCRome screening signal at TBXA2R (320 non-olfactory GPCRs [3]; [5]) | GPCRome screening signal at UTS2R (320 non-olfactory GPCRs [4]; [5]) | GPCRome agonism screen response (320 non-olfactory GPCRs [1]; replicate values, Fig_4g) | GPCRome agonism screen response (320 non-olfactory GPCRs [2]; replicate values, Fig_4g) | GPCRome agonism screen response (320 non-olfactory GPCRs [3]; replicate values, Fig_4g) | GPCRome agonism screen response (320 non-olfactory GPCRs [4]; replicate values, Fig_4g)
1 | CCOc1ccccc1CCC(C)NCC1(O)CCCCC1.Cl (racemic) [Fig_5f] | 2.447 and 1.17 and 1.142 and 1.029 | 1.32 and 1.667 and 1.261 and 1.267 | 1.076 and 0.505 and 0.6523 and 0.5698 | 1.327 and 1.1644 and 2.664 and 0.5292 |  |  |  | 
2 | CCOc1cccc2cc(C(C)NCC3(O)CCCCC3)oc12 (centres unmarked) [O4LE6] |  |  |  |  | 2.111 and 0.9213 and 3.313 and 1.2731 | 0.5287 and 0.4964 and 0.9933 and 0.8884 | 0.6818 and 0.496 and 0.4453 and 0.576 | 1.786 and 2.312 and 1.032
